Reference: US10799598B2, “Disulfide bridging conjugates” (Sorrento Therapeutics, Inc., priority 2017, dated 2020)

Key:
[1] = test system: LNCaP (PSMA+) prostate cancer cells; assay: Luminescence cytotoxicity assay, absence of effector cells, LNCaP; type: cell-based; conditions: LNCaP (PSMA present), up to 20 nM, 4 days incubation
Description: (§1) Firefly luciferase transduced prostate cancer target cell lines were used for cytotoxicity assays, LNCaP (ATCC® CRL-1740™), PSMA+(cultured in RPMI-1640+10% non-heat-inactivated FBS+0.5 μg/mL Puromycin) and PC-3 (ATCC® CRL-1435™), PSMA-(cultured in RPMI-1640+10% heat-inactivated FBS+1.0 μg/mL Puromycin). Cells were harvested with TrypLE (ThermoFisher Scientific) then resuspended in fresh RPMI-1640+10% heat-inactivated FBS and plated at 4,000 cells/well in 100 μL. After overnight incubation at 37° C. in a humidified 5% CO2 incubator, serial dilutions of proteins in RPMI-1640+10% heat-inactivated medium (50 μL) were added to the assay plates at the indicated concentrations. In experiments utilizing effector cells, freshly thawed peripheral blood mononuclear cells (PBMCs) were washed with media and added to the assay plates at 40,000 cells in 50 μL to obtain an effector:target ratio of 10:1. After 4 days incubation, 90 μL was removed from assay plates and 90 μL ONE Glo Luciferase Assay Reagent (Promega # E6120) was mixed with the samples and incubated at room temperature for 10 min. Samples were transferred to white 96-well flat bottom plates for luminescence measurements using a PerkinElmer EnSpire multimode plate reader. Data was analyzed using GraphPad Prism software.

[2] = test system: PC-3 (PSMA-) prostate cancer cells; assay: Luminescence cytotoxicity assay, absence of effector cells, PC-3; type: cell-based; conditions: PC-3 (PSMA absent), up to 20 nM, 4 days incubation
Description: as §1

Question: Which “dose-dependent cell killing activity” value [1] does the source give for `O=C(O)CCC(NC(=O)NC(CCC(=O)O)C(=O)O)C(=O)O` (centres unmarked) [DUPA small molecule, 2-[3-(1,3-dicarboxypropyl)ureido]pentanedioic acid] here?
Answer: Its value is “No dose-dependent cell killing activity was observed”.

Question: What about the “dose-dependent cell killing activity” value [2] of the same molecule?
Answer: Its value is “No dose-dependent cell killing activity was observed”.
